Laboratory results published in ChEMBL document CHEMBL5247647, “Phenothiazine-Based LSD1 Inhibitor Promotes T-Cell Killing Response of Gastric Cancer Cells” (J Med Chem, 2023).

Biological target: Lysine-specific histone demethylase 1A (Homo sapiens, UniProt O60341)
Test: Inhibition of recombinant LSD1 (unknown origin) expressed in Escherichia coli BL21 (DE3) using H3K4me2 peptide as substrate incubated for 30 mins by fluorescence based microplate reader assay

- IC50: 0.909 µM
Compound: CN1CCN(CCCN2c3ccccc3Sc3ccccc32)CC1 [PERAZINE]
